Data as given in US20260091026A1, “METHODS OF TREATING INFLAMMATORY DISEASES” (INTERLINE THERAPEUTICS, INC., priority 2023, published 2026).

Legend:
RIPK2 (KD)/XIAP (BIR2) = target: T1, RIPK2 (KD)/XIAP (BIR2) (Homo sapiens, UniProt O43353); assay: RIPK2-XIAP binding competition PPI assay (TR-FRET); settings: for Emax: 50 nM of GSK583 = -100% activity, read-out: PPI Amax; for IC50: GST-RIPK2 / His-XIAP (BIR2)-avi, 120 min at 23° C.
T1 construct: made in house; host or cells: baculovirus-infected Sf9 cells
T1 sequence (O43353 1-310): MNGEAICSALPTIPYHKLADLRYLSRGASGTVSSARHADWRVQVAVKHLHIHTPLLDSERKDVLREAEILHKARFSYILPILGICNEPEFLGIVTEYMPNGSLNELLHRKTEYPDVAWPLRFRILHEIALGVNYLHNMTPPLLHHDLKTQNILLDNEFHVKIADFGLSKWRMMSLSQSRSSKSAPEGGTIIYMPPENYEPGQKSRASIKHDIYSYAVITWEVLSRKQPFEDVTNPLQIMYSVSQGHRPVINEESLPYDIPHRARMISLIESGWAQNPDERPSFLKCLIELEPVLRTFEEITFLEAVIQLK
Method in brief: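 After 2 h at 23 °C, complex formation was read as the 665/520 nm emission ratio (337 nm excitation), scaled between uninhibited reaction and 50 nM GSK583. The mix held 1 nM human RIPK2 kinase fragment-GST, 25 nM His-tagged XIAP BIR2 and Tb/XL665 antibodies in pH 7.5 Tris buffer containing vanadate and glycerophosphate.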

[1] = system: THP1-Dual cells, NF-κB pathway (SEAP); assay: THP-1 Dual cell SEAP assay (L18-MDP stimulated); type: cell-based; settings: Homo sapiens, 10 ng/mL L18-MDP, 20-24 h, SEAP readout, read-out: IFNγ THP1 IC50
Method in brief: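 IC50 values come from non-linear fits of % inhibition of SEAP, measured as QUANTI-Blue optical density (620-655 nm, 2 h) in media-blanked supernatants. These were taken from THP1-Dual cells treated with compound for 30 min before overnight exposure to 10 ng/mL L18-MDP final at 37 °C.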

COc1cc2ncc(-c3cc(C(=O)NCc4ncn(C)n4)n(C)n3)n2cc1S(=O)(=O)C(C)(C)C [Example 81, 3-(6-(tert-butylsulfonyl)-7-methoxyimidazo[1,2-a]pyridin-3-yl)-1-methyl-N-((1-methyl-1H-1,2,4-triazol-3-yl)methyl)-1H-pyrazole-5-carboxamide]
Emax (RIPK2 (KD)/XIAP (BIR2)): ≥ 80% | IC50 (RIPK2 (KD)/XIAP (BIR2)): 100 to 1000 nM | IC50 [1]: > 2500 nM

COc1cc2ncc(-c3cc(C(=O)NCc4ncccc4C#N)n(C)n3)n2cc1S(=O)(=O)C(C)(C)C [Example 82, 3-(6-(tert-butylsulfonyl)-7-methoxyimidazo[1,2-a]pyridin-3-yl)-N-((3-cyanopyridin-2-yl)methyl)-1-methyl-1H-pyrazole-5-carboxamide]
Emax (RIPK2 (KD)/XIAP (BIR2)): ≥ 80% | IC50 (RIPK2 (KD)/XIAP (BIR2)): 10 to 100 nM | IC50 [1]: 500 to 2500 nM

COc1cc2ncc(-c3cc(C(=O)NCc4ccccc4C#N)n(C)n3)n2cc1S(=O)(=O)C(C)(C)C [Example 83, 3-(6-(tert-butylsulfonyl)-7-methoxyimidazo[1,2-a]pyridin-3-yl)-N-(2-cyanobenzyl)-1-methyl-1H-pyrazole-5-carboxamide]
Emax (RIPK2 (KD)/XIAP (BIR2)): ≥ 80% | IC50 (RIPK2 (KD)/XIAP (BIR2)): 100 to 1000 nM | IC50 [1]: > 2500 nM

COc1cc2ncc(-c3cc(C(=O)NCc4nccs4)n(C)n3)n2cc1S(=O)(=O)C(C)(C)C [Example 84, 3-(6-(tert-butylsulfonyl)-7-methoxyimidazo[1,2-a]pyridin-3-yl)-1-methyl-N-(thiazol-2-ylmethyl)-1H-pyrazole-5-carboxamide]
Emax (RIPK2 (KD)/XIAP (BIR2)): ≥ 80% | IC50 (RIPK2 (KD)/XIAP (BIR2)): 10 to 100 nM | IC50 [1]: 500 to 2500 nM

COc1cc2ncc(-c3cc(C(=O)NCc4cscn4)n(C)n3)n2cc1S(=O)(=O)C(C)(C)C [Example 85, 3-(6-(tert-butylsulfonyl)-7-methoxyimidazo[1,2-a]pyridin-3-yl)-1-methyl-N-(thiazol-4-ylmethyl)-1H-pyrazole-5-carboxamide]
Emax (RIPK2 (KD)/XIAP (BIR2)): ≥ 80% | IC50 (RIPK2 (KD)/XIAP (BIR2)): 10 to 100 nM | IC50 [1]: 500 to 2500 nM

COc1cc2ncc(-c3cc(C(=O)NCc4ccsn4)n(C)n3)n2cc1S(=O)(=O)C(C)(C)C [Example 86, 3-(6-(tert-butylsulfonyl)-7-methoxyimidazo[1,2-a]pyridin-3-yl)-N-(isothiazol-3-ylmethyl)-1-methyl-1H-pyrazole-5-carboxamide]
Emax (RIPK2 (KD)/XIAP (BIR2)): ≥ 80% | IC50 (RIPK2 (KD)/XIAP (BIR2)): 10 to 100 nM | IC50 [1]: 100 to 500 nM

COc1cc2ncc(-c3cc(C(=O)NCc4cc(C)sn4)n(C)n3)n2cc1S(=O)(=O)C(C)(C)C [Example 87, 3-(6-(tert-butylsulfonyl)-7-methoxyimidazo[1,2-a]pyridin-3-yl)-1-methyl-N-((5-methylisothiazol-3-yl)methyl)-1H-pyrazole-5-carboxamide]
Emax (RIPK2 (KD)/XIAP (BIR2)): ≥ 80% | IC50 (RIPK2 (KD)/XIAP (BIR2)): 10 to 100 nM | IC50 [1]: 500 to 2500 nM

COc1cc2ncc(-c3cc(C(=O)NCc4nc(C)cs4)n(C)n3)n2cc1S(=O)(=O)C(C)(C)C [Example 88, 3-(6-(tert-butylsulfonyl)-7-methoxyimidazo[1,2-a]pyridin-3-yl)-1-methyl-N-((4-methylthiazol-2-yl)methyl)-1H-pyrazole-5-carboxamide]
Emax (RIPK2 (KD)/XIAP (BIR2)): ≥ 80% | IC50 (RIPK2 (KD)/XIAP (BIR2)): 100 to 1000 nM | IC50 [1]: 500 to 2500 nM

COc1cc2ncc(-c3cc(C(=O)NCc4ncc(C)s4)n(C)n3)n2cc1S(=O)(=O)C(C)(C)C [Example 89, 3-(6-(tert-butylsulfonyl)-7-methoxyimidazo[1,2-a]pyridin-3-yl)-1-methyl-N-((5-methylthiazol-2-yl)methyl)-1H-pyrazole-5-carboxamide]
Emax (RIPK2 (KD)/XIAP (BIR2)): ≥ 80% | IC50 (RIPK2 (KD)/XIAP (BIR2)): 10 to 100 nM | IC50 [1]: 100 to 500 nM

COc1cc2ncc(-c3cc(C(=O)NCc4ncsn4)n(C)n3)n2cc1S(=O)(=O)C(C)(C)C [Example 90, N-((1,2,4-thiadiazol-3-yl)methyl)-3-(6-(tert-butylsulfonyl)-7-methoxyimidazo[1,2-a]pyridin-3-yl)-1-methyl-1H-pyrazole-5-carboxamide]
Emax (RIPK2 (KD)/XIAP (BIR2)): 55 to 80% | IC50 (RIPK2 (KD)/XIAP (BIR2)): 10 to 100 nM | IC50 [1]: 500 to 2500 nM

COc1cc2ncc(-c3cc(C(=O)NCc4nsc(C)n4)n(C)n3)n2cc1S(=O)(=O)C(C)(C)C [Example 91, 3-(6-(tert-butylsulfonyl)-7-methoxyimidazo[1,2-a]pyridin-3-yl)-1-methyl-N-((5-methyl-1,2,4-thiadiazol-3-yl)methyl)-1H-pyrazole-5-carboxamide]
Emax (RIPK2 (KD)/XIAP (BIR2)): 55 to 80% | IC50 (RIPK2 (KD)/XIAP (BIR2)): 100 to 1000 nM | IC50 [1]: > 2500 nM

COc1cc2ncc(-c3cc(C(=O)NCc4nc(C)c(C)s4)n(C)n3)n2cc1S(=O)(=O)C(C)(C)C [Example 92, 3-(6-(tert-butylsulfonyl)-7-methoxyimidazo[1,2-a]pyridin-3-yl)-N-((4,5-dimethylthiazol-2-yl)methyl)-1-methyl-1H-pyrazole-5-carboxamide]
Emax (RIPK2 (KD)/XIAP (BIR2)): ≥ 80% | IC50 (RIPK2 (KD)/XIAP (BIR2)): 100 to 1000 nM | IC50 [1]: > 2500 nM

COc1cc2ncc(-c3cc(C(=O)N[C@H](C)c4nccs4)n(C)n3)n2cc1S(=O)(=O)C(C)(C)C [Example 93, (R)-3-(6-(tert-butylsulfonyl)-7-methoxyimidazo[1,2-a]pyridin-3-yl)-1-methyl-N-(1-(thiazol-2-yl)ethyl)-1H-pyrazole-5-carboxamide]
Emax (RIPK2 (KD)/XIAP (BIR2)): ≥ 80% | IC50 (RIPK2 (KD)/XIAP (BIR2)): 10 to 100 nM | IC50 [1]: 100 to 500 nM

C[C@@H](NC(=O)c1cc(-c2cnc3cc(OCCO)c(S(=O)(=O)C(C)(C)C)cn23)nn1C)c1nccs1 [Example 94, (R)-3-(6-(tert-butylsulfonyl)-7-(2-hydroxyethoxy)imidazo[1,2-a]pyridin-3-yl)-1-methyl-N-(1-(thiazol-2-yl)ethyl)-1H-pyrazole-5-carboxamide]
Emax (RIPK2 (KD)/XIAP (BIR2)): ≥ 80% | IC50 (RIPK2 (KD)/XIAP (BIR2)): 10 to 100 nM | IC50 [1]: 100 to 500 nM

CCn1nc(-c2cnc3cc(OC)c(S(=O)(=O)C(C)(C)C)cn23)cc1C(=O)N[C@H](C)c1ccccn1 [Example 95, (R)-3-(6-(tert-butylsulfonyl)-7-methoxyimidazo[1,2-a]pyridin-3-yl)-1-ethyl-N-(1-(pyridin-2-yl)ethyl)-1H-pyrazole-5-carboxamide]
Emax (RIPK2 (KD)/XIAP (BIR2)): ≥ 80% | IC50 (RIPK2 (KD)/XIAP (BIR2)): < 10 nM | IC50 [1]: < 100 nM

CCn1nc(-c2cnc3cc(OC)c(S(=O)(=O)C(C)(C)C)cn23)cc1C(=O)N[C@H](C)c1ncccn1 [Example 96, (R)-3-(6-(tert-butylsulfonyl)-7-methoxyimidazo[1,2-a]pyridin-3-yl)-1-ethyl-N-(1-(pyrimidin-2-yl)ethyl)-1H-pyrazole-5-carboxamide]
Emax (RIPK2 (KD)/XIAP (BIR2)): ≥ 80% | IC50 (RIPK2 (KD)/XIAP (BIR2)): < 10 nM | IC50 [1]: < 100 nM

CCn1nc(-c2cnc3cc(OC)c(S(=O)(=O)C(C)(C)C)cn23)cc1C(=O)N[C@H](C)c1ncccc1F [Example 97, (R)-3-(6-(tert-butylsulfonyl)-7-methoxyimidazo[1,2-a]pyridin-3-yl)-1-ethyl-N-(1-(3-fluoropyridin-2-yl)ethyl)-1H-pyrazole-5-carboxamide]
Emax (RIPK2 (KD)/XIAP (BIR2)): ≥ 80% | IC50 (RIPK2 (KD)/XIAP (BIR2)): < 10 nM | IC50 [1]: < 100 nM

CCn1nc(-c2cnc3cc(OC)c(S(=O)(=O)C(C)(C)C)cn23)cc1C(=O)N[C@H](C)c1nccs1 [Example 98, (R)-3-(6-(tert-butylsulfonyl)-7-methoxyimidazo[1,2-a]pyridin-3-yl)-1-ethyl-N-(1-(thiazol-2-yl)ethyl)-1H-pyrazole-5-carboxamide]
Emax (RIPK2 (KD)/XIAP (BIR2)): ≥ 80% | IC50 (RIPK2 (KD)/XIAP (BIR2)): < 10 nM | IC50 [1]: < 100 nM

COc1cc2ncc(-c3cc(C(=O)N[C@H](C)c4ccccn4)n(C4CC4)n3)n2cc1S(=O)(=O)C(C)(C)C [Example 99, (R)-3-(6-(tert-butylsulfonyl)-7-methoxyimidazo[1,2-a]pyridin-3-yl)-1-cyclopropyl-N-(1-(pyridin-2-yl)ethyl)-1H-pyrazole-5-carboxamide]
Emax (RIPK2 (KD)/XIAP (BIR2)): ≥ 80% | IC50 (RIPK2 (KD)/XIAP (BIR2)): < 10 nM | IC50 [1]: < 100 nM

COc1cc2ncc(-c3cc(C(=O)N[C@H](C)c4ncccn4)n(C4CC4)n3)n2cc1S(=O)(=O)C(C)(C)C [Example 100, (R)-3-(6-(tert-butylsulfonyl)-7-methoxyimidazo[1,2-a]pyridin-3-yl)-1-cyclopropyl-N-(1-(pyrimidin-2-yl)ethyl)-1H-pyrazole-5-carboxamide]
Emax (RIPK2 (KD)/XIAP (BIR2)): ≥ 80% | IC50 (RIPK2 (KD)/XIAP (BIR2)): < 10 nM | IC50 [1]: < 100 nM

COc1cc2ncc(-c3cc(C(=O)N[C@H](C)c4ccccn4)n(C(C)C)n3)n2cc1S(=O)(=O)C(C)(C)C [Example 101, (R)-3-(6-(tert-butylsulfonyl)-7-methoxyimidazo[1,2-a]pyridin-3-yl)-1-isopropyl-N-(1-(pyridin-2-yl)ethyl)-1H-pyrazole-5-carboxamide]
Emax (RIPK2 (KD)/XIAP (BIR2)): ≥ 80% | IC50 (RIPK2 (KD)/XIAP (BIR2)): < 10 nM | IC50 [1]: < 100 nM

COc1cc2ncc(-c3cc(C(=O)N[C@H](C)c4ncccn4)n(C(C)C)n3)n2cc1S(=O)(=O)C(C)(C)C [Example 102, (R)-3-(6-(tert-butylsulfonyl)-7-methoxyimidazo[1,2-a]pyridin-3-yl)-1-isopropyl-N-(1-(pyrimidin-2-yl)ethyl)-1H-pyrazole-5-carboxamide]
Emax (RIPK2 (KD)/XIAP (BIR2)): ≥ 80% | IC50 (RIPK2 (KD)/XIAP (BIR2)): < 10 nM | IC50 [1]: < 100 nM

COc1cc2ncc(-c3cc(C(=O)N[C@H](C)c4ncccn4)n(C)n3)n2cc1S(=O)(=O)C(C)(C)C [Example 103, (R)-3-(6-(tert-butylsulfonyl)-7-methoxyimidazo[1,2-a]pyridin-3-yl)-1-methyl-N-(1-(pyrimidin-2-yl)ethyl)-1H-pyrazole-5-carboxamide]
Emax (RIPK2 (KD)/XIAP (BIR2)): ≥ 80% | IC50 (RIPK2 (KD)/XIAP (BIR2)): 10 to 100 nM | IC50 [1]: 100 to 500 nM
